Earlier results, collected in US8541371B2, “Treatment of conditions related to cecal ligation shock” (The Regents of The University of California, priority 2009, dated 2013).

System: shock
Settings: shock patients, approved treatment

## drotrecogin alfa (activated) [XIGRIS]
  survival benefit: minor but confirmed survival benefit
